Experimental data published in patent US20050113309A1, “Crystalline forms(2s)-n-5[amino(imino)methyl]-2-thienylmethyl-1-(2r)-2[(carboxymethyl) amino]-3,3-diphenylpropanoyl-2-pyrrolidinecarboxamide nh2o” (priority 2002, published 2005).
“Also recorded” adds a separate entry of the source.

Tests used:
[1] = Stress stability test (storage at −20° C., 50° C., 70° C. for 4 weeks); type: physicochemical; conditions: for Discoloration / change in appearance: 4 weeks' storage; for Color / Stability compared with the amorphous form: stress stability test; for Color: temperature not given (change in appearance at 70° C.)
Procedure: In order to compare physicochemical stability among the crystalline Form VI, the crystalline Form I, and the amorphous form prepared in Examples 7, 8, and Comparative Example 1, the stress stability test was conducted by placing their samples at the temperatures of −20° C., 50° C., and 70° C. for 4 weeks.

[2] = Powder X-ray diffraction during moisture absorption and dehumidification (crystal form stability to relative humidity); type: physicochemical; conditions: moisture absorption / relative humidity 33-93%
Procedure: 40 mg of the above crystalline Form I was thinly coated onto a sample holder. And, immediately after the sample was dried under vacuum in the presence of P2O5, and after the sample was placed for moisture absorption at each relative humidity of 33%, 53%, 64%, 75%, and 93% for two days or more, respectively, the powder X-ray diffraction test was conducted on the sample according to the conditions represented in above Test example 1 to observe change of the crystalline formi during moisture absorption. While lowering the relative humidity, the same test was repeated to observe change of the crystalline form during dehumidification.
In order to obtain each relative humidity above, as shown in the table below, saturated aqueous solutions of salts were prepared, then placed in a desiccator, and the desiccator was sealed.
40 mg of the above crystalline Form IV was thinly coated onto a sample holder. Immediately after the sample was dried under vacuum in the presence of P2O5, and after the sample was placed for moisture absorption at each relative humidity of 33%, 53%, 64%, 75%, and 93% for two days or more, respectively, the powder X-ray diffraction test of the sample was conducted according to the conditions represented in Test example 1 above to observe change of the crystalline form during moisture absorption. While lowering the relative humidity, the same test was repeated to observe change of the crystalline form during dehumidification.
In order to obtain each relative humidity above, as shown in Table 3 of Test example 2, saturated aqueous solutions of salts were prepared and then placed in a desiccator, and the desiccator was sealed.

Structure (SMILES)	Residual rate after 4 weeks ([1]; 50° C., 4 weeks)	Residual rate after 4 weeks ([1]; 50° C., 4 weeks, listed as amorphous form)	Residual rate after 4 weeks ([1]; 70° C., 4 weeks)	Discoloration / change in appearance ([1]; 70° C.)	Residual rate after 4 weeks ([1]; 70° C., 4 weeks, listed as amorphous form)	Color ([1]; 4 weeks)	Change in appearance ([1]; −20° C. and 50° C., 4 weeks)	Residual rate after 4 weeks ([1]; −20° C., 4 weeks)	Residual rate after 4 weeks ([1]; −20° C., 4 weeks, listed as amorphous form)	Stability compared with the amorphous form ([1]; 4 weeks)	Change of crystal structure / crystalline form with relative humidity [2]
N=C(N)c1ccc(CNC(=O)[C@@H]2CCCN2C(=O)[C@H](NCC(=O)O)C(c2ccccc2)c2ccccc2)s1 [Amorphous form, (2S)-N-5-[amino(imino)methyl]-2-thienylmethyl-1-(2R)-2-[(carboxymethyl)amino]-3,3-diphenylpropanoyl-2-pyrrolidinecarboxamide]	96%	96%	87%	discoloration; also recorded: change in appearance	87%	Yellow	did not show any change in appearance	96%	96%		
N=C(N)c1ccc(CNC(=O)[C@@H]2CCCN2C(=O)[C@H](NCC(=O)O)C(c2ccccc2)c2ccccc2)s1 [Form IV, (2S)-N-5-[amino(imino)methyl]-2-thienylmethyl-1-(2R)-2-[(carboxymethyl)amino]-3,3-diphenylpropanoyl-2-pyrrolidinecarboxamide]				stable without discoloration							
N=C(N)c1ccc(CNC(=O)[C@@H]2CCCN2C(=O)[C@H](NCC(=O)O)C(c2ccccc2)c2ccccc2)s1 [Form VI, (2S)-N-5-[amino(imino)methyl]-2-thienylmethyl-1-(2R)-2-[(carboxymethyl)amino]-3,3-diphenylpropanoyl-2-pyrrolidinecarboxamide]	99%		100%			Ivory		101%		remarkably superior stability over the amorphous form	crystal structure is not changed under any relative humidity
N=C(N)c1ccc(CNC(=O)[C@@H]2CCCN2C(=O)[C@H](NCC(=O)O)C(c2ccccc2)c2ccccc2)s1 [Form I, (2S)-N-5-[amino(imino)methyl]-2-thienylmethyl-1-(2R)-2-[(carboxymethyl)amino]-3,3-diphenylpropanoyl-2-pyrrolidinecarboxamide]	99%		100%	stable without discoloration		Ivory		99%		remarkably superior stability over the amorphous form	
N=C(N)c1ccc(CNC(=O)[C@@H]2CCCN2C(=O)[C@H](NCC(=O)O)C(c2ccccc2)c2ccccc2)s1 [Form II, (2S)-N-5-[amino(imino)methyl]-2-thienylmethyl-1-(2R)-2-[(carboxymethyl)amino]-3,3-diphenylpropanoyl-2-pyrrolidinecarboxamide]											changed to the crystalline Form III
N=C(N)c1ccc(CNC(=O)[C@@H]2CCCN2C(=O)[C@H](NCC(=O)O)C(c2ccccc2)c2ccccc2)s1 [Form V, (2S)-N-5-[amino(imino)methyl]-2-thienylmethyl-1-(2R)-2-[(carboxymethyl)amino]-3,3-diphenylpropanoyl-2-pyrrolidinecarboxamide]											changed into the crystalline Form VI
